Measured values from ChEMBL document CHEMBL3132769, “Fragment growing to retain or alter the selectivity of anchored kinase hinge-binding fragments” (Medchemcomm, 2014).

Tests used:
[1] = biological target: T1, cGMP-dependent protein kinase 1 (Homo sapiens) (UniProt Q13976); experiment: Inhibition of human full length PKG-1a expressed in baculovirus assessed as substrate phosphorylation using fluorescence-labelled peptides as substrate at 0.2 uM after 90 mins by microfluidic peptide phosphorylation assay
T1 sequence (whole entry): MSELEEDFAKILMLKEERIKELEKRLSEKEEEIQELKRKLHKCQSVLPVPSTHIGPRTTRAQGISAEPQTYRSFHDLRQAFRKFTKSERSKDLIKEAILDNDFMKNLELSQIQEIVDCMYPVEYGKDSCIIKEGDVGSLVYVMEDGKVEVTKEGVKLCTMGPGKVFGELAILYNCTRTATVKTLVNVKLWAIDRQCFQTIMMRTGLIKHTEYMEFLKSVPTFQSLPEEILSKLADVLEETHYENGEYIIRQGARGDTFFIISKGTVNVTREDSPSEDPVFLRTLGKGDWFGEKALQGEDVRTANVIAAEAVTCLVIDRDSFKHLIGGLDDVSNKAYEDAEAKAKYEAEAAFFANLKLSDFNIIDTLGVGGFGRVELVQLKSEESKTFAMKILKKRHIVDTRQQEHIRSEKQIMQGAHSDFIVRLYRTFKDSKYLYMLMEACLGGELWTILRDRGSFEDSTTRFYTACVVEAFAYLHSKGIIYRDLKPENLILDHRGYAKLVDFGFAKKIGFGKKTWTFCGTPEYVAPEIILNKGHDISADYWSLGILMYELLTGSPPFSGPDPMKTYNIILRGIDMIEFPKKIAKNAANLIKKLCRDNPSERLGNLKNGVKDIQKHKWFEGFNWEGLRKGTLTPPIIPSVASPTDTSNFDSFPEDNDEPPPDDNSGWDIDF

[2] = biological target: T2, Serine/threonine-protein kinase D1 (Homo sapiens) (UniProt Q15139); experiment: Inhibition of human full length PKD1 expressed in baculovirus assessed as substrate phosphorylation using fluorescence-labelled peptides as substrate at 0.2 uM after 90 mins by microfluidic peptide phosphorylation assay
T2 sequence (whole entry): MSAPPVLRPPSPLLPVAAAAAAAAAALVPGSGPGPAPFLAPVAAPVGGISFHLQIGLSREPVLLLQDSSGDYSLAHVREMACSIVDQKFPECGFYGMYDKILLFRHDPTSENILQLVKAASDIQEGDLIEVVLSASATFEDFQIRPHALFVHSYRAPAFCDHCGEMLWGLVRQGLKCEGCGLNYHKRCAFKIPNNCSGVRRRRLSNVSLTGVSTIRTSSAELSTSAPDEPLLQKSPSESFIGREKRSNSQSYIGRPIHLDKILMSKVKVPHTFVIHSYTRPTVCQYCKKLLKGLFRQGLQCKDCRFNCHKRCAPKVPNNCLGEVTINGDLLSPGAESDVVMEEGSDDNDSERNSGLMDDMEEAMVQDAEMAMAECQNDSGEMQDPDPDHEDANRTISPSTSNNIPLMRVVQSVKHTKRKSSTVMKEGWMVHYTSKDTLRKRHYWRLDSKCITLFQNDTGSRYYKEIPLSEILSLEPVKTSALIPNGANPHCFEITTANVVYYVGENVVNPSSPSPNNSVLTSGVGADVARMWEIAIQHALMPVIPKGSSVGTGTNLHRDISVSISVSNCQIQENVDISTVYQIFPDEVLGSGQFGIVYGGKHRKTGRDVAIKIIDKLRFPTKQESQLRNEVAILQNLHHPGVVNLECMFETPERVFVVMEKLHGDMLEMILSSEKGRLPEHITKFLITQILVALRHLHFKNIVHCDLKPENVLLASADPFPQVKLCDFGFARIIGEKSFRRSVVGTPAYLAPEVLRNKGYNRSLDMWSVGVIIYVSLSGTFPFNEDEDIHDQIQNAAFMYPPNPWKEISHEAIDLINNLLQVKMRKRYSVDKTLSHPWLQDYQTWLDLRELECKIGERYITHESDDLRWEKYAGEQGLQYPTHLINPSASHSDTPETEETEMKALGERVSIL

[3] = biological target: Insulin receptor (Homo sapiens) (UniProt P06213); experiment: Inhibition of human INSR catalytic domain expressed in baculovirus assessed as substrate phosphorylation using fluorescence-labelled peptides as substrate at 2 uM after 90 mins by microfluidic peptide phosphorylation assay
[4] = biological target: T3, Mitogen-activated protein kinase 13 (Homo sapiens) (UniProt O15264); experiment: Inhibition of human full length p38 delta expressed in Escherichia coli cell assessed as substrate phosphorylation using fluorescence-labelled peptides as substrate at 1000 uM after 90 mins by microfluidic peptide phosphorylation assay
T3 sequence (whole entry): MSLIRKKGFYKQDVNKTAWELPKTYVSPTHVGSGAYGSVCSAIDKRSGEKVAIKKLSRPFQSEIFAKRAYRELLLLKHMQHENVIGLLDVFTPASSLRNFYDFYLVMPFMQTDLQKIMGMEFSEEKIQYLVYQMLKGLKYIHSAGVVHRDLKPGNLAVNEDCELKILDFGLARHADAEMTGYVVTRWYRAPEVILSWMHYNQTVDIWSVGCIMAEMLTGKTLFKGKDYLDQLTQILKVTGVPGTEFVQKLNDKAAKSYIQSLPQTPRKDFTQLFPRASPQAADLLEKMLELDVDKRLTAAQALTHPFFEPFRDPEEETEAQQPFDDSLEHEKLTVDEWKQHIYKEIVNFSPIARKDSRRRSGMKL

[5] = biological target: Rho-associated protein kinase 2 (Homo sapiens) (UniProt O75116); experiment: Inhibition of human ROCK2 catalytic domain expressed in baculovirus assessed as substrate phosphorylation using fluorescence-labelled peptides as substrate at 1000 uM after 90 mins by microfluidic peptide phosphorylation assay
Rho-associated protein kinase 2 (Homo sapiens), sequence (O75116 whole entry, looked up, the tested form may be a part): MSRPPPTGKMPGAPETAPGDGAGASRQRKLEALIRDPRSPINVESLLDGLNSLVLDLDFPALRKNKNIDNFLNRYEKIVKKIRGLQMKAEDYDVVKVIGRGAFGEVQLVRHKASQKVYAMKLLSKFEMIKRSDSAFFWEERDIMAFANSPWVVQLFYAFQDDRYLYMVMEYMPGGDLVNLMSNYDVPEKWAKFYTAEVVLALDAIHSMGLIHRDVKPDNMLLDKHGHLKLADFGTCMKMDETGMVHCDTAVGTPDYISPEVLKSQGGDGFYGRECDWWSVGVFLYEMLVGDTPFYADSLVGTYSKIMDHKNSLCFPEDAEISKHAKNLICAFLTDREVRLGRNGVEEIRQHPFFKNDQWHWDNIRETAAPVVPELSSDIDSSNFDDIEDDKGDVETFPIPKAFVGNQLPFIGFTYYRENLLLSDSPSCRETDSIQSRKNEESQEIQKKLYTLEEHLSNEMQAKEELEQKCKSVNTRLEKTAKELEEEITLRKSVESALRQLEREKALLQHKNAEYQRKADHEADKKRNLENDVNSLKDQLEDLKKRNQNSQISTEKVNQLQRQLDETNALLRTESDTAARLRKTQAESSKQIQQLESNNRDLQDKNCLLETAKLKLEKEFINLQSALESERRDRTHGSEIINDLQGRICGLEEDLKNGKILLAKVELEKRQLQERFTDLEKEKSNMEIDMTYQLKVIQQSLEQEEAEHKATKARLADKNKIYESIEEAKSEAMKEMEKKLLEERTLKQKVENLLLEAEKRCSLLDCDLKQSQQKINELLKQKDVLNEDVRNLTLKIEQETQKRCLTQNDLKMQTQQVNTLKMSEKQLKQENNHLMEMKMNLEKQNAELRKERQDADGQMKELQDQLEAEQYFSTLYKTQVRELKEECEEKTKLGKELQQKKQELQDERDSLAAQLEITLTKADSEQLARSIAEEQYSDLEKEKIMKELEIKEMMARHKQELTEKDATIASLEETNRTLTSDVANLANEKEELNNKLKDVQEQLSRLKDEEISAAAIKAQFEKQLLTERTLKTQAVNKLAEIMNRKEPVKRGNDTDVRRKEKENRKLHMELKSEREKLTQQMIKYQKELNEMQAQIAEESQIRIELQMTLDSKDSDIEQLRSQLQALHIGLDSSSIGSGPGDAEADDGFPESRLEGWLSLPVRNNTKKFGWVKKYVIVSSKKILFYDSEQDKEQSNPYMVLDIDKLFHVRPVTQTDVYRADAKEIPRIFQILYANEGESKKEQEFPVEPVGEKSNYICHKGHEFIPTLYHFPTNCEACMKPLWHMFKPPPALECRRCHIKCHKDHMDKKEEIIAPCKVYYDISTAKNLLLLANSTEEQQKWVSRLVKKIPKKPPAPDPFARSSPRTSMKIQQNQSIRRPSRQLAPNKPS

[6] = biological target: T1, cGMP-dependent protein kinase 1 (Homo sapiens); experiment: Inhibition of human full length PKG-1beta expressed in baculovirus assessed as substrate phosphorylation using fluorescence-labelled peptides as substrate at 70 uM after 90 mins by microfluidic peptide phosphorylation assay

## Clc1ccc(C2(c3ccc(-c4ncnc5[nH]cnc45)cc3)CCNCC2)cc1
[1]
  inhibition: 88.5%
[2]
  inhibition: 8%

## NC1CCN(c2ncnc3[nH]ccc23)CC1
[3]
  inhibition: 7.5%

## c1cnc2[nH]ccc2c1
[4]
  inhibition: 51%
[5]
  inhibition: 99.5%

## CNCc1ccc(-c2ncnc3[nH]cnc23)cc1
[6]
  inhibition: 95.5%
